From patent US20230165252A1, “ACTIVE COMPOUND COMBINATIONS” (Bayer Aktiengesellschaft, priority 2020, published 2023)
Like-named read-outs stand apart in the source and are kept apart here.

Legend:
Format in all cases: cell-based
Alternaria alternate = assay: in vitro-Test with Alternaria alternate (microtiter growth inhibition)
Method: (§1) The degree of efficacy expressed in % is denoted: 0% means an efficacy, which corresponds to that of the control, while an efficacy of 100% means that no disease is observed.
(§2) If the actual fungicidal activity exceeds the calculated value, then the activity of the combination is super-additive, i.e. a synergistic effect exists. In this case, the efficacy, which was actually observed, must be greater than the value for the expected efficacy (E), that was calculated from the abovementioned formula.
(§3) Example: In Vitro-Test with Fungal Microorganisms
(§4) Wells of 96-well microtiter plates are filled with 10 μl of a preparation of test compound or compound combination in methanol+emulsifier alkylaryl-polyglycol-ether. Thereafter, the solvent is evaporated in a hood. At the next step, 100 μl of liquid potato dextrose medium is given into each well, that has been amended with an appropriate concentration of spores or mycelium suspension of the test fungus.
(§5) With the aid of a photometer, the extinction in all wells is measured at the wavelength of 620 nm.
(§6) The microtiter plates are incubated at 20° C. and 85% relative humidity. The inhibition of growth is determined again photometrically 3-5 days after the application. Efficacy is calculated in relation to the untreated control, 0% efficacy means fungal growth as high as in untreated control while 100% efficacy means no fungal growth is measured.

Cercospora beticola = assay: in vitro-Test with Cercospora beticola (microtiter growth inhibition); conditions: alone
Method: as §1, §2, §3, §4, §5, §6

Diaporthe citri = assay: in vitro-Test with Diaporthe citri (microtiter growth inhibition)
Method: as §2, §3, §4, §5, §6

Fusarium culmorum = assay: in vitro-Test with Fusarium culmorum (microtiter growth inhibition); conditions: Fusarium culmorum, read-out: Efficacy
Method: as §1, §2, §3, §4, §5, §6

[1] = system: Ustilago segetum var. avenae; assay: in vitro-Test with Ustilago segetum var. avenae (microtiter growth inhibition); conditions: single compound
Method: as §1, §2, §3, §4, §5, §6

Botrytis cinerea = assay: in vitro-Test with Botrytis cinerea (microtiter growth inhibition); conditions: applied alone
Method: as §1, §2, §3, §4, §5, §6

Cordana musae = assay: in vitro-Test with Cordana musae (microtiter growth inhibition); conditions: single substance
Method: as §1, §2, §3, §4, §5, §6

Parastagonospora nodorum = assay: in vitro-Test with Parastagonospora nodorum (microtiter growth inhibition)
Method: as §1, §2, §3, §4, §5, §6

[2] = Alternaria, alone, read-out: Efficacy %
[3] = Alternaria, applied alone, read-out: Efficacy
[4] = Diaporthe citri, read-out: Efficacy
[5] = Diaporthe citri, applied alone, read-out: Efficacy
[6] = Neocordana musae, read-out: Efficacy

## O=C1c2ccccc2C(=O)N1SC(Cl)(Cl)Cl [folpet]
Alternaria alternate; [2]
  inhibition of growth at 0.4 ppm: 0%
Alternaria alternate; Alternaria, applied alone, 0.08 ppm, read-out: Efficacy
  inhibition of growth at 0.08 ppm: 5%
Alternaria alternate; [3]
  inhibition of growth at 0.4 ppm: 1%
Alternaria alternate; Alternaria, applied alone, 2 ppm, read-out: Efficacy
  inhibition of growth at 2 ppm: 100%
Alternaria alternate; Alternaria, applied alone, 10 ppm, read-out: Efficacy
  inhibition of growth at 10 ppm: 100%
Cercospora beticola; Cercospora beticola, 0.08 ppm, read-out: Efficacy %
  inhibition of growth at 0.08 ppm: 7%
Cercospora beticola; Cercospora beticola, 2 ppm, read-out: Efficacy %
  inhibition of growth at 2 ppm: 100%
Cercospora beticola; Cercospora beticola, 10 ppm, read-out: Efficacy %
  inhibition of growth at 10 ppm: 100%
Diaporthe citri; [4]
  inhibition of growth at 0.08 ppm: 20%
  inhibition of growth at 0.4 ppm: 33%
Diaporthe citri; Diaporthe citri, 2 ppm, read-out: Efficacy
  inhibition of growth at 2 ppm: 98%
Diaporthe citri; [5]
  inhibition of growth at 0.08 ppm: 0%
  inhibition of growth at 0.4 ppm: 53%
Diaporthe citri; Diaporthe citri, applied alone, 10 ppm, read-out: Efficacy
  inhibition of growth at 10 ppm: 99%
Fusarium culmorum; 0.4 ppm
  inhibition of growth at 0.4 ppm: 0%
Fusarium culmorum; 2 ppm
  inhibition of growth at 2 ppm: 62%
Fusarium culmorum; 10 ppm
  inhibition of growth at 10 ppm: 100%
[1]; 0.08 ppm, read-out: Efficacy %
  inhibition of growth at 0.08 ppm: 12%

## CC(O)(Cn1cncn1)c1ccc(Oc2ccc(Cl)cc2)cc1C(F)(F)F (centres unmarked) [mefentrifluconazole]
Alternaria alternate; 0.008 ppm, alone
  Efficacy %: 0%
Alternaria alternate; 1.0 ppm, alone
  Efficacy %: 100%
Botrytis cinerea; 0.04 ppm
  Efficacy: 36%
Botrytis cinerea; 0.2 ppm
  Efficacy: 63%
Botrytis cinerea; 1.0 ppm
  Efficacy: 100%
Cercospora beticola; 0.04 ppm
  Efficacy %: 100%
Cercospora beticola; 0.2 ppm
  Efficacy %: 100%
Cordana musae; 0.008 ppm
  Efficacy: 0%
Cordana musae; 1.0 ppm
  Efficacy: 100%
Diaporthe citri; applied alone, 0.04 ppm
  Efficacy: 85%
Diaporthe citri; applied alone, 0.2 ppm
  Efficacy: 100%
Diaporthe citri; applied alone, 1.0 ppm
  Efficacy: 100%
Parastagonospora nodorum; 0.008 ppm
  Efficacy: 85%
Parastagonospora nodorum; 0.04 ppm
  Efficacy: 97%
Parastagonospora nodorum; 0.2 ppm
  Efficacy: 99%
Parastagonospora nodorum; 1.0 ppm
  Efficacy: 100%
[1]; 0.008 ppm
  Efficacy %: 5%
[1]; 0.2 ppm
  Efficacy %: 67%
[1]; 1.0 ppm
  Efficacy %: 100%

## Cc1cc(C)nc(Nc2ccccc2)n1 [pyrimethanil]
Alternaria alternate; [2]
  inhibition of growth at 0.8 ppm: 88%
  inhibition of growth at 4 ppm: 99%
  inhibition of growth at 20 ppm: 100%
Alternaria alternate; [3]
  inhibition of growth at 0.8 ppm: 100%
  inhibition of growth at 4 ppm: 100%
  inhibition of growth at 20 ppm: 100%
Botrytis cinerea; 0.8 ppm
  Efficacy: 96%
Botrytis cinerea; 4 ppm
  Efficacy: 99%
Cercospora beticola; Cercospora beticola, 0.8 ppm, read-out: Efficacy %
  inhibition of growth at 0.8 ppm: 0%
Cercospora beticola; Cercospora beticola, 20 ppm, read-out: Efficacy %
  inhibition of growth at 20 ppm: 100%
Cordana musae; Neocordana musae, 0.8 ppm, read-out: Efficacy
  inhibition of growth at 0.8 ppm: 9%
Cordana musae; [6]
  inhibition of growth at 20 ppm: 15%
Diaporthe citri; [5]
  inhibition of growth at 4 ppm: 94%
Parastagonospora nodorum; 0.8 ppm
  Efficacy: 100%
Parastagonospora nodorum; 4 ppm
  Efficacy: 100%

## CCCN(CC)CC1COC2(CCC(C(C)(C)C)CC2)O1 (centres unmarked) [spiroxamine]
Alternaria alternate; [2]
  inhibition of growth at 0.8 ppm: 1%
  inhibition of growth at 4 ppm: 1%
Botrytis cinerea; 0.8 ppm
  Efficacy: 5%
Botrytis cinerea; 4 ppm
  Efficacy: 4%
Cordana musae; Neocordana musae, 4 ppm, read-out: Efficacy
  inhibition of growth at 4 ppm: 0%
Cordana musae; [6]
  inhibition of growth at 20 ppm: 4%
Diaporthe citri; Diaporthe citri, applied alone, 0.8 ppm, read-out: Efficacy
  inhibition of growth at 0.8 ppm: 0%
Diaporthe citri; [5]
  inhibition of growth at 4 ppm: 0%
Diaporthe citri; Diaporthe citri, applied alone, 20 ppm, read-out: Efficacy
  inhibition of growth at 20 ppm: 6%
Fusarium culmorum; 0.8 ppm
  inhibition of growth at 0.8 ppm: 0%
Fusarium culmorum; 4 ppm
  inhibition of growth at 4 ppm: 0%
Fusarium culmorum; 20 ppm
  inhibition of growth at 20 ppm: 2%
[1]; 0.8 ppm, read-out: Efficacy %
  inhibition of growth at 0.8 ppm: 0%
[1]; 4 ppm, read-out: Efficacy %
  inhibition of growth at 4 ppm: 0%
[1]; 20 ppm, read-out: Efficacy %
  inhibition of growth at 20 ppm: 87%

## CC(C)(C)C(O)(CCc1ccc(Cl)cc1)Cn1cncn1 (centres unmarked) [tebuconazole]
Alternaria alternate; Alternaria, 0.008 ppm, alone, read-out: Efficacy %
  inhibition of growth at 0.008 ppm: 11%
Alternaria alternate; [2]
  inhibition of growth at 0.04 ppm: 9%
  inhibition of growth at 0.2 ppm: 32%
Alternaria alternate; Alternaria, 1.0 ppm, alone, read-out: Efficacy %
  inhibition of growth at 1 ppm: 98%
Alternaria alternate; Alternaria, applied alone, 0.008 ppm, read-out: Efficacy
  inhibition of growth at 0.008 ppm: 0%
Alternaria alternate; [3]
  inhibition of growth at 0.04 ppm: 14%
  inhibition of growth at 0.2 ppm: 48%
Alternaria alternate; Alternaria, applied alone, 1.0 ppm, read-out: Efficacy
  inhibition of growth at 1 ppm: 99%
Botrytis cinerea; 0.008 ppm
  Efficacy: 0%
Botrytis cinerea; 0.04 ppm
  Efficacy: 8%
Botrytis cinerea; 0.2 ppm
  Efficacy: 20%
Botrytis cinerea; 1.0 ppm
  Efficacy: 100%
Cercospora beticola; Cercospora beticola, 0.008 ppm, read-out: Efficacy %
  inhibition of growth at 0.008 ppm: 0%
Cercospora beticola; Cercospora beticola, 0.04 ppm, read-out: Efficacy %
  inhibition of growth at 0.04 ppm: 22%
Cercospora beticola; Cercospora beticola, 0.2 ppm, read-out: Efficacy %
  inhibition of growth at 0.2 ppm: 83%
Cercospora beticola; Cercospora beticola, 1.0 ppm, read-out: Efficacy %
  inhibition of growth at 1 ppm: 100%
Cordana musae; Neocordana musae, 0.2 ppm, read-out: Efficacy
  inhibition of growth at 0.2 ppm: 2%
Diaporthe citri; Diaporthe citri, applied alone, 0.04 ppm, read-out: Efficacy
  inhibition of growth at 0.04 ppm: 47%
Diaporthe citri; Diaporthe citri, applied alone, 0.2 ppm, read-out: Efficacy
  inhibition of growth at 0.2 ppm: 96%
Diaporthe citri; Diaporthe citri, applied alone, 1.0 ppm, read-out: Efficacy
  inhibition of growth at 1 ppm: 98%
Fusarium culmorum; 0.04 ppm
  inhibition of growth at 0.04 ppm: 0%
Fusarium culmorum; 1.0 ppm
  inhibition of growth at 1 ppm: 99%
